{
  "source": "ChEMBL document CHEMBL6074686",
  "about": "(Eur J Med Chem, 2025)",
  "key": {"A549": {"system": "A549", "test": "Antitumor activity against human A549 cells assessed as reduction in cell viability incubated for 72 hrs by CCK8 assay", "format": "functional, cell-based", "settings": "A549, 72 h"}, "SK-OV-3 [1]": {"system": "SK-OV-3", "test": "Inhibition of colony formation in human SK-OV-3 cells incubated for 12 days by crystal violet staining based assay", "format": "functional, cell-based", "settings": "dose 1.25-20 nM, time 12.0 day"}, "MCF7 [2]": {"system": "MCF7", "test": "Inhibition of colony formation in human MCF7 cells incubated for 72 hrs by crystal violet staining based assay", "format": "functional, cell-based", "settings": "dose 3.125-50 nM"}, "MCF7 [3]": {"system": "MCF7", "test": "Inhibition of colony formation in human MCF7 cells at 50 nM incubated for 72 hrs by crystal violet staining based assay relative to control", "format": "functional"}, "SK-OV-3 [4]": {"system": "SK-OV-3", "test": "Induction of cell cycle arrest in human SK-OV-3 cells assessed as increase in G2/M phase cells at 2.5 nM incubated for 24 hrs PI staining based flow cytometric analysis (reference value: 24.6 +/- 2.0%)", "format": "functional"}, "SK-OV-3 [5]": {"system": "SK-OV-3", "test": "Induction of cell cycle arrest in human SK-OV-3 cells assessed as increase in G2/M phase cells at 5 nM incubated for 24 hrs PI staining based flow cytometric analysis (reference value: 24.6 +/- 2.0%)", "format": "functional"}, "SK-OV-3 [6]": {"system": "SK-OV-3", "test": "Induction of apoptosis in human SK-OV-3 cells assessed as increase in apoptotic cells at 2.5 to 40 nM by IncuCyte live-cell imaging analysis", "format": "functional, cell-based", "settings": "dose 2.5-40 nM, time lower 24.0 hrs, time upper […]"}, "MCF7 [7]": {"system": "MCF7", "test": "Induction of apoptosis in human MCF7 cells assessed as increase in apoptotic cells at 6.25 to 100 nM incubated for 24 hrs by IncuCyte live-cell imaging analysis", "format": "functional, cell-based", "settings": "dose 6.25-100 nM"}, "SK-OV-3 [8]": {"system": "SK-OV-3", "test": "Inhibition of cell migration in human SK-OV-3 cells assessed as reduction in wound closure at 3.125 nM incubated for 24 hrs by wound healing assay (reference value: 21.8 +/- 7.6%)", "format": "functional", "settings": "SK-OV-3, 24 h, values are per cent of control"}, "MCF7 [9]": {"system": "MCF7", "test": "Induction of apoptosis in human MCF7 cells assessed as upregulation of Bax expression at 100 nM incubated for 24 hrs by Western blotting analysis", "format": "functional, cell-based"}, "MCF7 [10]": {"system": "MCF7", "test": "Induction of apoptosis in human MCF7 cells assessed as upregulation of Bcl-2 expression at 100 nM incubated for 24 hrs by Western blotting analysis", "format": "functional, cell-based"}, "MCF7 [11]": {"system": "MCF7", "test": "Induction of apoptosis in human MCF7 cells assessed as downregulation of cleaved-PARP expression at 100 nM incubated for 24 hrs by Western blotting analysis", "format": "functional, cell-based"}, "Tubulin (Homo sapiens)": {"target": "Tubulin (Homo sapiens) (UniProt P68371+Q9H4B7+P0DPH7+P68366+Q13509+Q71U36+P04350+Q3ZCM7+P07437+P68363+Q9BQE3+Q6PEY2+Q13885+Q9BVA1+Q9BUF5)", "test": "Inhibition of tubulin polymerization (unknown origin) assessed as reduction in optical density at 340 nm", "format": "protein-complex assay", "settings": "dose 5-20 µM"}, "SK-OV-3 [12]": {"system": "SK-OV-3", "test": "Inhibition of cell migration in human SK-OV-3 cells assessed as reduction in wound closure at 12.5 nM incubated for 24 hrs by wound healing assay (reference value: 21.8 +/- 7.6%)", "format": "functional", "settings": "SK-OV-3, 24 h, values are per cent of control"}, "SK-OV-3 [13]": {"system": "SK-OV-3", "test": "Inhibition of cell migration in human SK-OV-3 cells assessed as reduction in wound closure at 50 nM incubated for 24 hrs by wound healing assay (reference value: 21.8 +/- 7.6%)", "format": "functional", "settings": "SK-OV-3, 24 h, values are per cent of control"}, "SK-OV-3 [14]": {"system": "SK-OV-3", "test": "Inhibition of cell migration in human SK-OV-3 cells assessed as wound closure ratio at 3.125 nM incubated for 24 hrs by wound healing assay (reference value: 100%)", "format": "functional", "set-up": "scale not given: the % may be the effect or the level left"}, "SK-OV-3 [15]": {"system": "SK-OV-3", "test": "Inhibition of cell migration in human SK-OV-3 cells assessed as wound closure ratio at 12.5 nM incubated for 24 hrs by wound healing assay (reference value: 100%)", "format": "functional", "set-up": "scale not given: the % may be the effect or the level left"}, "SK-OV-3 [16]": {"system": "SK-OV-3", "test": "Inhibition of cell migration in human SK-OV-3 cells assessed as decrease in cell density incubated for 24 hrs by wound healing assay", "format": "functional, cell-based", "settings": "dose 3.125-50 nM"}, "MCF7 [17]": {"system": "MCF7", "test": "Inhibition of cell migration in human MCF7 cells assessed as wound closure at 1.25 nM incubated for 24 hrs by wound healing assay (reference value: 44.5 +/- 8.8%)", "format": "functional", "set-up": "scale not given: the % may be the effect or the level left"}, "MCF7 [18]": {"system": "MCF7", "test": "Inhibition of cell migration in human MCF7 cells assessed as wound closure at 2.5 nM incubated for 24 hrs by wound healing assay (reference value: 44.5 +/- 8.8%)", "format": "functional", "set-up": "scale not given: the % may be the effect or the level left"}, "MCF7 [19]": {"system": "MCF7", "test": "Inhibition of cell migration in human MCF7 cells assessed as wound closure at 10 nM incubated for 24 hrs by wound healing assay (reference value: 44.5 +/- 8.8%)", "format": "functional", "set-up": "scale not given: the % may be the effect or the level left"}, "MCF7 [20]": {"system": "MCF7", "test": "Inhibition of cell migration in human MCF7 cells assessed as wound closure ratio at 10 nM incubated for 24 hrs by wound healing assay (reference value: 100%)", "format": "functional", "set-up": "scale not given: the % may be the effect or the level left"}, "MCF7 [21]": {"system": "MCF7", "test": "Inhibition of cell migration in human MCF7 cells assessed as wound closure ratio at 20 nM incubated for 24 hrs by wound healing assay (reference value: 100%)", "format": "functional", "set-up": "scale not given: the % may be the effect or the level left"}, "SK-OV-3 [22]": {"system": "SK-OV-3", "test": "Inhibition of cell migration in human SK-OV-3 cells assessed as area of migrated cells at 2.5 nM incubated for 24 hrs by crystal violet staining based inverted microscopic analysis (reference value: 30.1 +/- 1.3 mm^3)", "format": "functional"}, "SK-OV-3 [23]": {"system": "SK-OV-3", "test": "Inhibition of cell migration in human SK-OV-3 cells assessed as area of migrated cells at 5 nM incubated for 24 hrs by crystal violet staining based inverted microscopic analysis (reference value: 30.1 +/- 1.3 mm^3)", "format": "functional"}, "SK-OV-3 [24]": {"system": "SK-OV-3", "test": "Inhibition of cell migration in human SK-OV-3 cells assessed as area of migrated cells at 10 nM incubated for 24 hrs by crystal violet staining based inverted microscopic analysis (reference value: 30.1 +/- 1.3 mm^3)", "format": "functional"}, "SK-OV-3 [25]": {"system": "SK-OV-3", "test": "Inhibition of cell migration in human SK-OV-3 cells assessed as ratio of migrated cells at 2.5 nM incubated for 24 hrs by Transwell assay (reference value: 100 %)", "format": "functional", "set-up": "scale not given: the % may be the effect or the level left"}, "SK-OV-3 [26]": {"system": "SK-OV-3", "test": "Inhibition of cell migration in human SK-OV-3 cells assessed as ratio of migrated cells at 5 nM incubated for 24 hrs by Transwell assay (reference value: 100 %)", "format": "functional", "set-up": "scale not given: the % may be the effect or the level left"}, "MCF7 [27]": {"system": "MCF7", "test": "Inhibition of cell migration in human MCF7 cells assessed as area of migrated cells at 6.25 nM incubated for 24 hrs by crystal violet staining based inverted microscopic analysis (reference value: 18.5 +/- 0.3 mm^3)", "format": "functional"}, "SK-OV-3 [28]": {"system": "SK-OV-3", "test": "Antitumor activity against human SK-OV-3 cells xenografted xenografted in female BALB/c nude mouse assessed as upregulation of cleaved PARP expression level in tumor at 5 to 10 mg/kg, […] via tail vein once every 2 to 3 days by immunohistochemistry analysis", "format": "functional, organism-based", "settings": "dose 5-10 mg/kg, time 2-3 day"}, "[29]": {"test": "Toxicity in female BALB/c nude mouse xenografted with human SK-OV-3 cells assessed as pathological changes in lung at 5 to 10 mg/kg, […] via tail vein once every 2 to 3 days by H and E staining based analysis", "format": "organism-based", "settings": "in vivo, dose lower 5 mg/kg, time lower 2 day, dose upper 10 mg/kg, time upper 3 day"}, "[30]": {"test": "Toxicity in female BALB/c nude mouse xenografted with human SK-OV-3 cells assessed as pathological changes in kidney at 5 to 10 mg/kg, […] via tail vein once every 2 to 3 days by H and E staining based analysis", "format": "organism-based", "settings": "in vivo, dose lower 5 mg/kg, time lower 2 day, dose upper 10 mg/kg, time upper 3 day"}},
  "note": "Active and inactive are the calls of the source. The calls are words filed in the database; no cut-off is given here.",
  "data": [
    {"smiles": "CNc1nc(N2CCCc3cc(OC)ccc32)c2cc(F)ccc2n1", "values": [
      {"measurement": "IC50", "setting": "A549", "result": 2.7, "unit": "nM"},
      {"measurement": "inhibition", "setting": "SK-OV-3 [1]", "result": "Dose-dependent-effect"},
      {"measurement": "inhibition", "setting": "MCF7 [2]", "result": "Dose-dependent-effect"},
      {"measurement": "inhibition at 0.05 µM", "setting": "MCF7 [3]", "result": 42.2, "unit": "%"},
      {"measurement": "Activity", "setting": "SK-OV-3 [4]", "result": 25.3, "unit": "%"},
      {"measurement": "Activity", "setting": "SK-OV-3 [5]", "result": 29.6, "unit": "%"},
      {"measurement": "Activity", "setting": "SK-OV-3 [6]", "result": "Time-dependent-effect"},
      {"measurement": "Activity", "setting": "MCF7 [7]", "result": "Active"},
      {"measurement": "response, % of control at 0.003125 µM", "setting": "SK-OV-3 [8]", "result": 22.8, "unit": "%"},
      {"measurement": "Activity", "setting": "MCF7 [9]", "result": "Active"},
      {"measurement": "Activity", "setting": "MCF7 [10]", "result": "inactive"},
      {"measurement": "Activity", "setting": "MCF7 [11]", "result": "inactive"},
      {"measurement": "inhibition", "setting": "Tubulin (Homo sapiens)", "result": "Dose-dependent-effect"},
      {"measurement": "response, % of control at 0.0125 µM", "setting": "SK-OV-3 [12]", "result": 14.3, "unit": "%"},
      {"measurement": "response, % of control at 0.05 µM", "setting": "SK-OV-3 [13]", "result": 4.9, "unit": "%"},
      {"measurement": "Activity", "setting": "SK-OV-3 [14]", "result": 104.5, "unit": "%"},
      {"measurement": "Activity", "setting": "SK-OV-3 [15]", "result": 65.8, "unit": "%"},
      {"measurement": "inhibition", "setting": "SK-OV-3 [16]", "result": "Dose-dependent-effect"},
      {"measurement": "Activity", "setting": "MCF7 [17]", "result": 47, "unit": "%"},
      {"measurement": "Activity", "setting": "MCF7 [18]", "result": 44, "unit": "%"},
      {"measurement": "Activity", "setting": "MCF7 [19]", "result": 46.5, "unit": "%"},
      {"measurement": "Activity", "setting": "MCF7 [20]", "result": 104.4, "unit": "%"},
      {"measurement": "Activity", "setting": "MCF7 [21]", "result": 72.4, "unit": "%"},
      {"measurement": "Activity", "setting": "SK-OV-3 [22]", "result": 18.9, "unit": "mm3"},
      {"measurement": "Activity", "setting": "SK-OV-3 [23]", "result": 14.7, "unit": "mm3"},
      {"measurement": "Activity", "setting": "SK-OV-3 [24]", "result": 6.8, "unit": "mm3"},
      {"measurement": "Activity", "setting": "SK-OV-3 [25]", "result": 62.9, "unit": "%"},
      {"measurement": "Activity", "setting": "SK-OV-3 [26]", "result": 48.8, "unit": "%"},
      {"measurement": "Activity", "setting": "MCF7 [27]", "result": 16.4, "unit": "mm3"},
      {"measurement": "Activity", "setting": "SK-OV-3 [28]", "result": "Active"},
      {"measurement": "Activity", "setting": "[29]", "result": "Non-toxic"},
      {"measurement": "Activity", "setting": "[30]", "result": "Non-toxic"}
    ]}
  ]
}
